Results reported in the supplement of paper PMC10307832.

Experiments:
Assay in all cases: relative viability (nuclei count vs DMSO), 5 days (fraction); higher = more cells survive
BEN = test system: BEN
Summary of the method: (§1)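 Relative viability equals treated-well nuclei counts divided by vehicle-well nuclei counts. Counts came from 4× images of lung cancer cell lines grown in 1536-well plates for 5 days after pin-tool dosing on the day after seeding. Dosing used one drug alone or a fixed anchor-drug dose plus five library-drug doses (not always all listed) in √10 steps, and values are medians of duplicate plates.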

CAL-12T = test system: CAL-12T
Summary of the method: as §1

COR-L23 = test system: COR-L23
Summary of the method: as §1

HCC-366 = test system: HCC-366
Summary of the method: as §1

LOU-NH91 = test system: LOU-NH91
Summary of the method: as §1

LU99A = test system: LU99A
Summary of the method: as §1

NCI-H1355 = test system: NCI-H1355
Summary of the method: as §1

NCI-H1437 = test system: NCI-H1437
Summary of the method: as §1

NCI-H1563 = test system: NCI-H1563
Summary of the method: as §1

NCI-H1650 = test system: NCI-H1650
Summary of the method: as §1

NCI-H1651 = test system: NCI-H1651
Summary of the method: as §1

NCI-H1734 = test system: NCI-H1734
Summary of the method: as §1

NCI-H1975 = test system: NCI-H1975
Summary of the method: as §1

NCI-H2023 = test system: NCI-H2023
Summary of the method: as §1

NCI-H2085 = test system: NCI-H2085
Summary of the method: as §1

NCI-H441 = test system: NCI-H441
Summary of the method: as §1

NCI-H460 = test system: NCI-H460
Summary of the method: as §1

NCI-H838 = test system: NCI-H838
Summary of the method: as §1

SK-LU-1 = test system: SK-LU-1
Summary of the method: as §1

Structure (SMILES): CCN(CC)CCCCNc1ncc2cc(-c3cc(OC)cc(OC)c3)c(NC(=O)NC(C)(C)C)nc2n1 + CC(C)C[C@H](NC(=O)[C@H](Cc1ccccc1)NC(=O)c1cnccn1)B(O)O [Bortezomib] (partner 0.002 µM)
- relative viability (BEN; first compound 0.01 µM): 0.819
- relative viability (BEN; first compound 0.03162 µM): 0.528
- relative viability (BEN; first compound 0.1 µM): 1.03
- relative viability (BEN; first compound 0.3162 µM): 0.766
- relative viability (BEN; first compound 1 µM): 0.715
- relative viability (CAL-12T; first compound 0.03162 µM): 1.02
- relative viability (CAL-12T; first compound 0.1 µM): 1.03
- relative viability (CAL-12T; first compound 0.3162 µM): 1.26
- relative viability (CAL-12T; first compound 1 µM): 0.769
- relative viability (COR-L23; first compound 0.01 µM): 1.19
- relative viability (COR-L23; first compound 0.03162 µM): 1.3
- relative viability (COR-L23; first compound 0.1 µM): 1.13
- relative viability (COR-L23; first compound 0.3162 µM): 1.13
- relative viability (COR-L23; first compound 1 µM): 1.01
- relative viability (HCC-366; first compound 0.01 µM): 1.09
- relative viability (HCC-366; first compound 0.03162 µM): 1.06
- relative viability (HCC-366; first compound 0.1 µM): 1.48
- relative viability (HCC-366; first compound 0.3162 µM): 1.29
- relative viability (HCC-366; first compound 1 µM): 0.968
- relative viability (LOU-NH91; first compound 0.01 µM): 0.531
- relative viability (LOU-NH91; first compound 0.03162 µM): 0.49
- relative viability (LOU-NH91; first compound 0.1 µM): 0.498
- relative viability (LOU-NH91; first compound 0.3162 µM): 0.515
- relative viability (LOU-NH91; first compound 1 µM): 0.424
- relative viability (LU99A; first compound 0.01 µM): 1.03
- relative viability (LU99A; first compound 0.03162 µM): 1.16
- relative viability (LU99A; first compound 0.1 µM): 1.34
- relative viability (LU99A; first compound 0.3162 µM): 1.23
- relative viability (LU99A; first compound 1 µM): 1.13
- relative viability (NCI-H1355; first compound 0.01 µM): 1.23
- relative viability (NCI-H1355; first compound 0.03162 µM): 1.25
- relative viability (NCI-H1355; first compound 0.1 µM): 1.29
- relative viability (NCI-H1355; first compound 0.3162 µM): 1.41
- relative viability (NCI-H1355; first compound 1 µM): 1.13
- relative viability (NCI-H1437; first compound 0.01 µM): 0.536
- relative viability (NCI-H1437; first compound 0.03162 µM): 0.533
- relative viability (NCI-H1437; first compound 0.1 µM): 0.593
- relative viability (NCI-H1437; first compound 0.3162 µM): 0.554
- relative viability (NCI-H1437; first compound 1 µM): 0.472
- relative viability (NCI-H1563; first compound 0.01 µM): 0.722
- relative viability (NCI-H1563; first compound 0.03162 µM): 0.847
- relative viability (NCI-H1563; first compound 0.1 µM): 0.818
- relative viability (NCI-H1563; first compound 0.3162 µM): 0.809
- relative viability (NCI-H1563; first compound 1 µM): 0.52
- relative viability (NCI-H1650; first compound 0.01 µM): 0.201
- relative viability (NCI-H1650; first compound 0.03162 µM): 0.217
- relative viability (NCI-H1650; first compound 0.1 µM): 0.233
- relative viability (NCI-H1650; first compound 0.3162 µM): 0.203
- relative viability (NCI-H1650; first compound 1 µM): 0.197
- relative viability (NCI-H1651; first compound 0.01 µM): 1
- relative viability (NCI-H1651; first compound 0.03162 µM): 0.94
- relative viability (NCI-H1651; first compound 0.1 µM): 1.06
- relative viability (NCI-H1651; first compound 0.3162 µM): 1.03
- relative viability (NCI-H1651; first compound 1 µM): 0.902
- relative viability (NCI-H1734; first compound 0.01 µM): 0.941
- relative viability (NCI-H1734; first compound 0.03162 µM): 0.901
- relative viability (NCI-H1734; first compound 0.1 µM): 1.11
- relative viability (NCI-H1734; first compound 0.3162 µM): 1.11
- relative viability (NCI-H1734; first compound 1 µM): 0.874
- relative viability (NCI-H1975; first compound 0.01 µM): 0.442
- relative viability (NCI-H1975; first compound 0.03162 µM): 0.375
- relative viability (NCI-H1975; first compound 0.1 µM): 0.394
- relative viability (NCI-H1975; first compound 0.3162 µM): 0.451
- relative viability (NCI-H1975; first compound 1 µM): 0.365
- relative viability (NCI-H2023; first compound 0.01 µM): 0.925
- relative viability (NCI-H2023; first compound 0.03162 µM): 1.08
- relative viability (NCI-H2023; first compound 0.1 µM): 1.16
- relative viability (NCI-H2023; first compound 0.3162 µM): 1.13
- relative viability (NCI-H2023; first compound 1 µM): 0.968
- relative viability (NCI-H2085; first compound 0.01 µM): 0.991
- relative viability (NCI-H2085; first compound 0.03162 µM): 1.03
- relative viability (NCI-H2085; first compound 0.1 µM): 1.09
- relative viability (NCI-H2085; first compound 0.3162 µM): 1.15
- relative viability (NCI-H2085; first compound 1 µM): 0.999
- relative viability (NCI-H441; first compound 0.01 µM): 0.475
- relative viability (NCI-H441; first compound 0.03162 µM): 0.45
- relative viability (NCI-H441; first compound 0.1 µM): 0.817
- relative viability (NCI-H441; first compound 0.3162 µM): 0.489
- relative viability (NCI-H441; first compound 1 µM): 0.492
- relative viability (NCI-H460; first compound 0.01 µM): 1.3
- relative viability (NCI-H460; first compound 0.03162 µM): 1.33
- relative viability (NCI-H460; first compound 0.3162 µM): 1.62
- relative viability (NCI-H460; first compound 1 µM): 1.04
- relative viability (NCI-H838; first compound 0.01 µM): 0.793
- relative viability (NCI-H838; first compound 0.03162 µM): 0.732
- relative viability (NCI-H838; first compound 0.1 µM): 0.96
- relative viability (NCI-H838; first compound 0.3162 µM): 0.9
- relative viability (NCI-H838; first compound 1 µM): 0.579
- relative viability (SK-LU-1; first compound 0.01 µM): 1.1
- relative viability (SK-LU-1; first compound 0.03162 µM): 0.911
- relative viability (SK-LU-1; first compound 0.1 µM): 1.27
- relative viability (SK-LU-1; first compound 0.3162 µM): 1.75
- relative viability (SK-LU-1; first compound 1 µM): 1.06
